The source of these data is article PMC9814550, “Exo-selective intermolecular Diels–Alder reaction by PyrI4 and AbnU on non-natural substrates” (Communications Chemistry, 2021).

Experiment [1] has as its target T1, AbnU (Parafrankia colletiae, UniProt A0A1S1R073).
T1 construct: gene CC117_14200; N-terminal poly-His tag, pET28a(+), codon-optimised synthetic gene, E. coli; dimer
The experiment can be described thus: tryptophan fluorescence quenching (W114). It counts as binding.

In experiment [2] the target is T2, PyrI4 (Streptomyces rugosporus, UniProt K7QVW7, E65A).
T2 construct: full length, N-terminal poly-His tag, pET28a(+), codon-optimised synthetic gene, E. coli
T2 sequence (K7QVW7 whole entry E65A): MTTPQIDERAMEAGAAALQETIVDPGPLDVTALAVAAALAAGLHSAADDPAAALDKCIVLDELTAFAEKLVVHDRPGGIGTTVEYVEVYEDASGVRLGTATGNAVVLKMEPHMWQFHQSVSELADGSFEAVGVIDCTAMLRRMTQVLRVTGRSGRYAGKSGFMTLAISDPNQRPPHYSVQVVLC
Kind of experiment: LC-SRM of product 3a. The following applies: co-substrate 2. It counts as biochemical.

Where two headings read alike, the source gives them in different places.

For orientation: Kd means the concentration at which binding is half-saturated.

T1 sequence (A0A1S1R073 entry or part of it): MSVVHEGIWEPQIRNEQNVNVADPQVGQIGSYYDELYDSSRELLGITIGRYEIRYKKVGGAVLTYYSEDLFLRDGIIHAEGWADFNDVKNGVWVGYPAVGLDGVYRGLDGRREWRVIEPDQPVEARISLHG

In experiment [1], `C=CC(=O)N(C)C` [compound 2, N,N-dimethylacrylamide] yielded a Kd of 6320 ± 280 µM.

In the case of `COC(=O)c1ccc(COC(=O)NC2C=CCCC2C(=O)N(C)C)cc1` (mixture of isomers) [3a], the Kd in experiment [1] (read-out: KD) is 1010 ± 205 µM.

With `C=C/C=C/NC(=O)OCc1ccc(C(=O)OC)cc1` [1a, diene 1a], in experiment [1] (read-out: KD), the Kd is 729 ± 117 µM. The “LC-SRM of product 3a” value in experiment [2] is listed as “Stereoselectivity is further compromised with E65A mutant”.
